Experimental data reported in article PMC7248880, “Preclinical Incorporation Dosimetry of [^18F]FACH—A Novel ^18F-Labeled MCT1/MCT4 Lactate Transporter Inhibitor for Imaging Cancer Metabolism with PET” (Molecules, 2020).

Assay: Vital sign monitoring after iv injection
Format: in vivo
Details: iv 156 ± 54 MBq (0.63 ± 0.49 µg), anesthetized piglets
Source text: The radiation safety of the newly developed MCT1/MCT4-specific radioligand [^18F]FACH was preclinically investigated. […] Afterwards, volumes of interest (VOIs) of the various organs were manually defined using the respective whole-body CT dataset for anatomical orientation. The estimated TIACs were extrapolated to the human entity (Equation (2)), followed by estimation of the organ doses with OLINDA 2.1 and calculation of the effective dose using tissue weighting factors as published in Publication 103 of the International Commission of Radiation Protection (ICRP103). Finally, it can be concluded that [^18F]FACH is safe with respect to the radiation risk that is caused by its systemic application for PET studies. This supports and encourages the translation of this newly developed radiopharmaceutical to clinical study phases.
Three piglets (age: ~6 weeks, weight: ~13–15 kg) were fasted on the day of imaging and received an intranuscular. injection of 1 mL azaperone and 4 mL ketamine to introduce anesthesia. […] During narcosis, the animals maintained spontaneous respiration and no mandatory ventilation was applied. The subjects were sequentially imaged after an iv injection (contralateral ear vein) of 156 ± 54 MBq [^18F]FACH (0.63 ± 0.49 µg) in a PET/CT system (Biograph16, SIEMENS, Erlangen, Germany). […]

CCCN(CCC[18F])c1ccc(/C=C(\C#N)C(=O)O)c(OC)c1 [[^18F]FACH, (E)-2-cyano-3-{4-[(3-[^18F]fluoropropyl)(propyl)amino]-2-methoxyphenyl}acrylic acid]
adverse effects based on vital sign monitoring: no adverse effects were observed
